Assays:
Brachiaria plantaginea [1] = test: Glasshouse trial, control of Brachiaria, pre-emergence test; type: in vivo; details: TXP (where applied) 200 g ai/ha, 20 DAA
Protocol: (§1) A glasshouse trial was carried out to test the activity of mesotrione or the compound of formula I (each at 3 different rates) in combination with trinexapac-ethyl at 200 gai/ha against Brachiaria plantaginea. Brachiaria seeds were sown in standard potting mix in 50 cm plastic troughs. The adjuvant system was X-77 at 0.1% v/v in deionised water. 500 liters of herbicide/adjuvant system was used per hectare. General weed control was evaluated at 15 days after application (DAA) for the post-emergence test and 20DAA for the pre-emergence test. It is noted that all herbicides were applied at reduced field rates because herbicide effects are magnified in a glasshouse environment. Rates were chosen to give a 50 to 70% level of control with herbicides applied alone as this allows for detection of any synergistic effect when tank mixtures are used.

Brachiaria plantaginea [2] = test: Glasshouse trial, control of Brachiaria, post-emergence test; type: in vivo; details: TXP (where applied) 200 g ai/ha, 15 DAA
Protocol: as §1

SMILES | % Control at different herbicide rates (Brachiaria plantaginea [1]; herbicide rate 30 g ai/ha) | % Control at different herbicide rates (Brachiaria plantaginea [1]; herbicide rate 60 g ai/ha) | % Control at different herbicide rates (Brachiaria plantaginea [1]; herbicide rate 125 g ai/ha) | % Control at different herbicide rates (Brachiaria plantaginea [2]; herbicide rate 30 g ai/ha) | % Control at different herbicide rates (Brachiaria plantaginea [2]; herbicide rate 60 g ai/ha) | % Control at different herbicide rates (Brachiaria plantaginea [2]; herbicide rate 125 g ai/ha)
COCCOCc1nc(C(F)(F)F)ccc1C(=O)C1=C(O)C2CCC(C2)C1=O (stereo not drawn) [Formula I] | 30% | 80% | 90% | 60% | 70% | 80%
CS(=O)(=O)c1ccc(C(=O)C2C(=O)CCCC2=O)c([N+](=O)[O-])c1 [Mesotrione, mesotrione] | 30% | 50% | 80% | 30% | 70% | 70%
CCOC(=O)C1CC(=O)C(=C(O)C2CC2)C(=O)C1 (stereo not drawn) [TXP, trinexapac-ethyl] | 0% | 0% | 0% | 0% | 0% | 0%

Source: patent US9480252B2, “Herbicidal compositions” (Syngenta Crop Protection LLC, priority 2007, dated 2016)
